Assay results taken from patent US20220259172A1, “CHEMICAL INHIBITORS OF ID PROTEINS FOR THE TREATMENT OF CANCER AND OTHER DISEASES” (Universität Heidelberg, priority 2019, published 2022).
“Also recorded” adds a separate entry of the source.

Columns and labels:
[1] = tested on: Id1; experiment: Id1 expression in HUVECs, Western blot; assay type: cell-based, Human; details: proliferating HUVECs; 24 hours (FIG. 10A)
Protocol: (§1) Human umbilical vein endothelial cells (HUVECs) and lymphatic endothelial cells (LECs) were cultivated in EBM™-2 Endothelial Cell Growth Basal Medium supplemented with EGM™-2 MV Microvascular Endothelial Cell Growth Medium-2 SingleQuots™ Kit (both Lonza, catalogue numbers CC-3156 and CC4176, respectively), hereafter referred to as endothelial cell growth medium. HUVECs and LECs were cultivated in the presence of the indicated concentrations of X6632, or with DMSO as a solvent control. After 24 hours, cells were harvested. Lysates were western blotted and probed with antibodies against Id1 and Id3. Western blots probed with vinculin antibodies served as loading controls.
(§2) Western blot analysis was performed using standard methods. The following antibodies were used for protein detection: Id1 (195-14, CalBioreagents), Id3 (17-3, CalBioreagents), β-actin (AC-15, Sigma Aldrich), Vinculin (VIN-11-5, Sigma Aldrich). Protein bands were detected using HRP conjugated secondary antibodies (P0447, P0448, Agilent Technologies) and enhanced chemiluminescence (32106, Thermo Fisher Scientific).
(§3) The effect of X6632 on Id1 and Id3 expression in cultivated proliferating human umbilical vein endothelial cells (HUVECs) was investigated. […] LDN-193189, an antagonist of BMP receptor isotypes ALK2 and ALK3, served as a positive control reference for inhibition of Id1 and Id3 expression.

[2] = tested on: Id3; experiment: Id3 expression in HUVECs, Western blot; assay type: cell-based, Human; details: proliferating HUVECs; 24 hours (FIG. 10A)
Protocol: as §1, §2, §3

[3] = tested on: Id1; experiment: Compound screen: BMP4-induced Id1 expression, Western blot; assay type: cell-based, murine; details: for Inhibitory effect on Id1 protein expression: B16-F10 and Ret cells, BMP4 10 ng/ml and compound simultaneously, 24 h, rated relative to CBD
Protocol: (§4) To screen compounds with an inhibitory effect on Id1 and Id3 expression, cells were simultaneously stimulated with BMP4 (10 ng/ml, 315-27, Peprotech) and substances at the indicated concentrations for 24 h. DMSO served as a solvent control. Effects on Id1 and Id3 expression levels were analysed by Western blotting.
as §2
(§5) B16-F10 and Ret melanoma cells were treated with BMP4 to induce Id1 and Id3 expression, and simultaneously treated with each of the compounds individually for a 24 h period.

[4] = tested on: Id3; experiment: Compound screen: BMP4-induced Id3 expression, Western blot; assay type: cell-based, murine; details: for Inhibitory effect on Id3 protein expression: B16-F10 and Ret cells, BMP4 10 ng/ml and compound simultaneously, 24 h, rated relative to CBD
Protocol: as §4, §2, §5

[5] = tested on: B16-F10 melanoma cells; experiment: Tumor growth and initiation in vivo, B16-F10; parameters: species or system mice; details: for Number of animals with tumors: B16-F10 cells, 8 mice per group, assessed over 90 days
Source text: (§6) B16-F10 (A) or Ret (B) cells were co-injected with Matrigel into syngeneic mice. […] Numbers indicate the number of animals with a tumor in each group. Bar graphs show the mean tumor volume in each group at the day when the first animal had reached the legal tumor size limit. Kaplan-Meier curves show the percentage of tumor-free animals in percent as a measure for tumor initiation.
(§7) Cells were harvested using trypsin/EDTA and washed in PBS. The indicated numbers of living melanoma cells were subcutaneously injected into the flank of syngeneic mice in 100 μl PBS. For co-injection experiments, the indicated number of living cells was resuspended in 100 μl Matrigel HC (10 mg/ml, #354262, Corning Inc.), and subcutaneously injected into the flank. Tumor volume was calculated using the formula 4/3π (d1/2×d2/2×d3/2), where d1−d3 represents the diameter of the tumor in three dimensions. […] All animal experiments were approved by the local authorities, and performed according to the German legal requirements. Tumor initiating cell (TIC) frequency and p-values were calculated using ELDA software.
(§8) To investigate the anti-tumor properties of the selected Id1/Id3-inhibiting compounds, groups of experimental mice (8 per group) were injected subcutaneously with B16-F10 or Ret melanoma cells. […] Melanoma initiation and growth was assessed over a period of 90 days.

[6] = Toxicity observed in treated tumor-bearing mice; assay type: in vivo; details: daily intraperitoneal injections; for Toxicity in the treated mice: 14 days
Protocol: as §7
In contrast, daily intraperitoneal injections of CBD led to the death of two mice in the experiment with Ret cell-derived tumors (cause of death unknown).

[7] = tested on: B16-F10 and Ret cells; experiment: Proliferation of melanoma cells in 2D culture; assay type: cell-based, murine
[8] = tested on: mouse embryonic fibroblasts (MEFs); experiment: Proliferation/cytotoxicity in mouse embryonic fibroblasts, 2D culture; assay type: cell-based
[9] = tested on: B16-F10 and Ret cells; experiment: 3D Matrigel assay; assay type: cell-based, murine
Protocol: X8166 inhibits melanoma cell growth in 3D Matrigel. B16-F10 (A) or Ret (B) control or CRISPR/Cas9 Id1/Id3 cells were seeded in 3D Matrigel (10 mg/ml) and grown for six days before analysis. B16-F10 or Ret cells were treated daily with DMSO or X8166 (7.5 μM). The number of colonies at six positions of each well of a 48-well plate were counted in each z-level (5-10 z-levels were imaged per position).
Cells (2×10^3) were mixed with Matrigel to obtain 150 μl of a cell/Matrigel (10 mg/ml, #354262, Corning Inc.) solution, which was seeded into a well of a 48-well plate. The gel was allowed to solidify at 37° C. for 30 min and was subsequently overlaid with 500 μl complete growth medium. After six days of culture, images were captured using a Leica DMI6000 B microscope at six different x/y positions in every well, and a minimum of five horizontal layers (z levels) at each position, in order to get every cell in focus for image analysis. Image analysis was performed using Fiji software as follows: First, images were transformed into 8-bit files (pixel values from 0 (black) to 255 (white)). The scale was set to distance=0, known=0, pixel=1, and unit=pixel global. Outlines of each colony in focus in every image were detected using the integrated semi-automatic magic wand tool. Once outlines were matching the morphology of the colony were obtained, the colony was filled white (pixel value 255) using the fill function. Thresholding of pixel values (threshold=255) allowed black (background) and white (colonies) images of the filled colonies to be obtained. The “Analyze particles” function was applied to measure the area and perimeter of colonies with a minimum pixel size of 1500. An invasive index was calculated as follows: Invasive index=(perimeter)^2/area, resulting in a unitless measure of invasiveness.

[10] = molecular target: CB2 (Homo sapiens, UniProt P34972); details: cited from earlier work
Sequence of CB2 (P34972 whole entry, species assumed): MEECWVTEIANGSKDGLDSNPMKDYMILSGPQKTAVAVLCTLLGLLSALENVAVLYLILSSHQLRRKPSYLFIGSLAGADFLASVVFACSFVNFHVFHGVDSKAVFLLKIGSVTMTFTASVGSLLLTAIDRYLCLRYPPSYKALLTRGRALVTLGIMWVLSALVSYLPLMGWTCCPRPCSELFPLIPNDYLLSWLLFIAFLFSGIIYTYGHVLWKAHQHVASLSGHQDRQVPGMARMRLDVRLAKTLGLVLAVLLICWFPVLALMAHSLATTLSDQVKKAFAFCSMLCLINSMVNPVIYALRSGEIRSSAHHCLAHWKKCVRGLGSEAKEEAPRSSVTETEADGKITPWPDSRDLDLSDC

[11] = tested on: Id1; details: cited from earlier work
[12] = tested on: mammary carcinoma; details: orthotropic mammary carcinoma model; cited from earlier work
[13] = tested on: glioma; details: glioma model; cited from earlier work
[14] = tested on: Ret melanoma cells; experiment: Tumor growth and initiation in vivo, Ret; parameters: species or system mice
Source text: as §6, §7, §8

[15] = compound 3.3 μM, BMP4, 24 h (FIG. 9B)

## Cc1cc(=O)oc2cc(O)ccc12 [4-methylumbelliferone, reference compound]
[1]
  Id1 protein expression: did not reduce
[2]
  Id3 protein expression: did not reduce

## C=C(C)[C@@H]1CCC(C)=C[C@H]1c1c(O)cc(CCCCC)cc1O [CBD, Cannabidiol, reference compound]
[3]; [15]
  Inhibition of Id1 expression: does not inhibit
[4]; [15]
  Inhibition of Id3 expression: does not inhibit
[5]
  Number of animals with tumors: seven out of eight
[6]
  Toxicity in the treated mice: toxicity-related injury to their intestinal organs
[6]; experiment with Ret cell-derived tumors, cause of death unknown
  Death of mice: two
[7]
  Proliferation / cytotoxicity, melanoma cells: strongly inhibited; also recorded: more cytotoxic
[8]
  Proliferation / cytotoxicity, non-transformed MEFs: strongly inhibited; also recorded: more toxic
[9]; daily application in 3D Matrigel
  3D assays could not be performed with daily application, reason: cytotoxicity
[10]
  Affinity for CB2: low affinity
[11]
  Id1 expression at the transcriptional level: inhibits
[12]
  Levels of Id1 in tumor tissue: reduced levels
  Primary tumor growth and lung metastasis: inhibition
[13]
  Id1 expression: inhibited
  Invasion in vivo: decreased invasion
  Survival of tumor-bearing mice: prolonged survival

## CCCCCCCC(C)(C)c1cc(O)c2cc(Cc3ccccc3O)c(=O)oc2c1 [X81]
[3]
  Inhibitory effect on Id1 protein expression: strongest inhibitory activities
[4]
  Inhibitory effect on Id3 protein expression: strongest inhibitory activities

## CCCCCCC(C)(C)c1cc(O)c2cc(Cc3ccccc3O)c(=O)oc2c1 [X106]
[3]
  Inhibitory effect on Id1 protein expression: strongest inhibitory activities
[4]
  Inhibitory effect on Id3 protein expression: strongest inhibitory activities

## O=C(Nc1nn(Cc2ccc(C(F)(F)F)cc2)c2c(C(F)(F)F)cccc12)c1ccccc1 [X8035]
[3]
  Inhibitory effect on Id1 protein expression: strongest inhibitory activities
[4]
  Inhibitory effect on Id3 protein expression: strongest inhibitory activities

## CCCCn1cc(C(=O)Cc2ccccc2)c2ccccc21 [X8166]
[3]
  Inhibitory effect on Id1 protein expression: strongest inhibitory activities
[4]
  Inhibitory effect on Id3 protein expression: strongest inhibitory activities
[5]; B16-F10 cells co-injected with Matrigel, syngeneic mice, daily i.p. first 14 days, compared to DMSO
  Melanoma growth and initiation: significantly inhibit; also recorded: potent inhibitors
[5]
  Number of animals with tumors: none
[5]; B16-F10 experiment, daily i.p. first 14 days
  Tumor growth and initiation compared to CBD: significantly more
[14]; Ret cells co-injected with Matrigel, syngeneic mice, daily i.p. first 14 days, compared to DMSO
  Melanoma growth and initiation: significantly inhibit; also recorded: potent inhibitors
[14]; Ret cells, 8 mice per group, assessed over 90 days
  Number of mice that did not develop any tumors: 2 mice
[14]; Ret experiment, daily i.p. first 14 days
  Tumor growth and initiation compared to CBD: significantly more
[6]
  Toxicity in the treated mice: no evidence for toxicity was observed; also recorded: well tolerated
[7]
  Proliferation / cytotoxicity, melanoma cells: modest inhibitory effect; also recorded: less cytotoxic
[8]
  Proliferation / cytotoxicity, non-transformed MEFs: modest inhibitory effect; also recorded: well tolerated; also recorded: superior; also recorded: less cytotoxic
[9]; Matrigel 10 mg/ml, six days, treated daily, X8166 7.5 μM
  Growth of melanoma cells in 3D Matrigel: significantly impaired; also recorded: inhibits

## Cc1ccc(Cn2cc(CC(=O)Nc3ccc(C(F)(F)F)cc3)c3ccccc32)cc1 [X8706]
[3]
  Inhibitory effect on Id1 protein expression: strongest inhibitory activities
[4]
  Inhibitory effect on Id3 protein expression: strongest inhibitory activities

## Cc1ccc(CN(C(=O)c2ccccc2)c2nn(Cc3ccc(C)cc3)c3c(C(F)(F)F)cccc23)cc1 [X8766]
[3]
  Inhibitory effect on Id1 protein expression: strongest inhibitory activities
[4]
  Inhibitory effect on Id3 protein expression: strongest inhibitory activities
